Article PMC3823643 (Nature structural & molecular biology, 2013)

Tests used:
[1] = biological target: E. coli dihydrofolate reductase (ecDHFR) (Escherichia coli, UniProt P0ABQ4); experiment: product inhibition of initial rate, absorbance at […] nm; format: biochemical
[2] = biological target: E. coli dihydrofolate reductase (ecDHFR) N23PP S148A (Escherichia coli, UniProt P0ABQ4, INS23P/N23P/S148A); experiment: as above; format: biochemical
[3] = biological target: T1, human dihydrofolate reductase (hDHFR) (Homo sapiens, UniProt P00374); experiment: X-ray crystal structure; format: biochemical
T1 sequence (P00374 1-187): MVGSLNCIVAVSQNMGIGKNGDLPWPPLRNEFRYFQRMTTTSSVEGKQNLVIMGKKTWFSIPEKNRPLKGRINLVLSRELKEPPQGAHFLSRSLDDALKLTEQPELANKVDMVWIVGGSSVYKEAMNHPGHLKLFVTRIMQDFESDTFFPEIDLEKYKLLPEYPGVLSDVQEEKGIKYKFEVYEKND

[4] = biological target: T2, Danio rerio (zebrafish) DHFR (zDHFR) (Danio rerio, UniProt A0A8M1P929); experiment: […] HSQC NMR; format: binding
T2 sequence (A0A8M1P929 1-190): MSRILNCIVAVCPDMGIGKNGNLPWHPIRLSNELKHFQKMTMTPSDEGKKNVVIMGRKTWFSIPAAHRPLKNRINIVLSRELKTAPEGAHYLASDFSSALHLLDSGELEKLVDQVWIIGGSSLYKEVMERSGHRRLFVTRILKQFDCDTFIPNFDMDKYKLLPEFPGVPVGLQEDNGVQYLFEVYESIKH

SMILES	IC50 [1]	IC50 [2]	IC50 [3]	15N HSQC NMR [4]
NC(=O)c1ccc[n+]([C@@H]2O[C@H](COP(=O)(O)OP(=O)(O)OC[C@H]3O[C@@H](n4cnc5c(N)ncnc54)[C@H](OP(=O)(O)O)[C@@H]3O)[C@@H](O)[C@H]2O)c1 [NADP+, NADP^+]	6.52 mM	1.27 mM	~0.62 mM	–
Nc1nc(=O)c2nc(CNc3ccc(C(=O)N[C@@H](CCC(=O)O)C(=O)O)cc3)cnc2[nH]1 [FOL, folic acid]	–	–	–	Each panel shows a superposition of E– NADP^+–FOL (model Michaelis complex, black) and E–NADP^+– THF
